Experiments:
[1] = target: T1, Induced myeloid leukemia cell differentiation protein Mcl-1 (Homo sapiens, UniProt Q07820); assay: Inhibition of recombinant Mcl-1 (residues 172-327) (unknown origin) using FITC-AHx-EARIAQELRRIGDEFNETYTR-NH2 as substrate after 90 mins by fluorescence polarization anisotropy competition assay
[2] = target: T1, Induced myeloid leukemia cell differentiation protein Mcl-1; assay: Inhibition of recombinant Mcl-1 (residues 172-327) (unknown origin) using FITC-AHx-GQVGRQLAIIGDDINR-NH2 as substrate after 90 mins by fluorescence polarization anisotropy competition assay
[3] = Inhibition of Bcl-xL (residues 1-209, loop 45 to 86 deleted) (unknown origin) using FITC-AHx-GQVGRQLAIIGDDINR-NH2 as substrate after 90 mins by fluorescence polarization anisotropy competition assay; design: species or system Homo sapiens
[4] = Antiproliferative activity against human NCI-H929 cells after 72 hrs by Cell TiterGlo assay; type: functional, cell-based; conditions: NCI-H929, 72 h
[5] = Inhibition of Bcl-2 (residues i_207 A96T/G110R, delta 35-91, replaced with Bcl-xL35-50) (unknown origin) using FITC-AHx-GQVGRQLAIIGDDINR-NH2 as substrate after 90 mins by fluorescence polarization anisotropy competition assay; design: species or system Homo sapiens
[6] = Antiproliferative activity against human ALMC2 cells after 72 hrs by Cell TiterGlo assay; type: functional, cell-based; conditions: ALMC2, 72 h
K562 = assay: Antiproliferative activity against human K562 cells after 72 hrs by Cell TiterGlo assay; type: functional, cell-based; conditions: K562, 72 h
[7] = Antiproliferative activity against human OPM2 cells after 72 hrs by Cell TiterGlo assay; type: functional, cell-based; conditions: OPM-2, 72 h
[8] = Antiproliferative activity against human ALMC1 cells after 72 hrs by Cell TiterGlo assay; type: functional, cell-based; conditions: ALMC1, 72 h

T1 sequence (Q07820 whole entry, the tested form may be a part): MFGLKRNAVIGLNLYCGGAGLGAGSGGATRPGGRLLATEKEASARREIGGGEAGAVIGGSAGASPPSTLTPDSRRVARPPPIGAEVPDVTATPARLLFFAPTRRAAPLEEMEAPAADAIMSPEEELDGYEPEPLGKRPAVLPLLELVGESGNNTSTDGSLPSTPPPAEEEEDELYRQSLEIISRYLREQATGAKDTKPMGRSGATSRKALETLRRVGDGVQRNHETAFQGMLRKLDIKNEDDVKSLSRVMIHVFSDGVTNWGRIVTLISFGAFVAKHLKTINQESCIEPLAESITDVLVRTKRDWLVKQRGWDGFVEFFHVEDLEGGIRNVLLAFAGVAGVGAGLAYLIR

Structure (SMILES) | Ki [1] | Ki [2] | Ki [3] | IC50 [4] | Ki [5] | IC50 [6] | IC50 (K562) | IC50 [7] | IC50 [8]
Cc1cc(OCCCc2c3n(c4c(-c5c(C)nn(C)c5C)cccc24)CCN(Cc2cccc(C(=O)O)c2)C3=O)cc(C)c1Cl | < 0.05 µM | < 0.007 µM | 2.2 µM | 15 µM | 6.44 µM | 33.9 µM | 40 µM | 16.3 µM | 13.1 µM
Cc1cc(OCCCc2c3n(c4c(-c5c(C)nn(C)c5C)c(Cl)ccc24)CCCN(c2cccc(C(=O)O)c2)C3=O)cc(C)c1Cl | – | – | 1.9 µM | 6.3 µM | – | 20.8 µM | 23.2 µM | – | 12 µM
Cc1cc(OCCCc2c(C(=O)NC(C)(C)C)[nH]c3ccccc23)cc(C)c1Cl | 1 µM | – | – | – | – | – | – | – | –
Cc1cc(OCCCc2c(C(=O)Nc3ccc(C#N)cc3)[nH]c3c(-c4c(C)nn(C)c4C)c(Cl)ccc23)cc(C)c1Cl | 0.051 µM | – | – | – | – | – | – | – | –
Cc1cc(OCCCc2c(C(=O)NCc3cc(C(=O)O)n(C)c3)[nH]c3c(-c4c(C)nn(C)c4C)cccc23)cc(C)c1Cl | < 0.05 µM | – | 3.54 µM | – | > 100 µM | – | – | – | –
Cc1cc(OCCCc2c(C(=O)NCc3cc(C(=O)O)ccn3)[nH]c3c(-c4c(C)nn(C)c4C)cccc23)cc(C)c1Cl | – | – | 7.9 µM | – | 27 µM | – | – | – | –

From ChEMBL document CHEMBL3769390, “Inhibitors of the Antiapoptotic Myeloid Cell Leukemia-1 (Mcl-1) May Provide Effective Treatment for Cancer” (ACS Med Chem Lett, 2015)
